Blank lines part the entries; values can stand above or below the molecule they belong to. Peptide text beside a SMILES is read from it. * marks the point of attachment. Boc = CC(C)(C)OC(=O)*; NHBn = c1ccc(CN*)cc1; Bn = c1ccc(C*)cc1
Legend:
Format in all cases: biochemical
[1] = target: T1, rabbit 20S proteasome, chymotrypsin-like (CT-L) activity (Oryctolagus cuniculus, UniProt G1T4Q9); assay: Rabbit 20S proteasome fluorescent assay, chymotrypsin-like activity (Suc-LLVY-amc); details: pH 7.5, 30° C.; for inhibition at 100 µM: 100 μM compound
T1 construct: other: 100 μM compound, pH 7.5, 30° C; other: pH 7.5, 30° C; CT-L Ki
T1 sequence (G1T4Q9 1-263): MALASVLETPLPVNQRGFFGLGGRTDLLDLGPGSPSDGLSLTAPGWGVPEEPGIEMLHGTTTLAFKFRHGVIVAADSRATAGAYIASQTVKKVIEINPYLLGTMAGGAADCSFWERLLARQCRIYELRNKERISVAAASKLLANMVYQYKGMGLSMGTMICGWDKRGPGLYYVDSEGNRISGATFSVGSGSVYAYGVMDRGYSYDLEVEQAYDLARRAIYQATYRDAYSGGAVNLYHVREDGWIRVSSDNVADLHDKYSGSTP
Experimental: (§1) 20S proteasome from rabbit reticulocyte was from commercial source (Alexis Biochemicals)
(§2) Semi-automatic fluorescent assays using Suc-LLVY-amc (SEQ ID NO: 2) for chymotrypsin-like activity, Z-LLE-SNA for post-acid activity and Boc-LLR-amc for trypsin-like activity of proteasome were performed at pH 7.5 and 30° C. using BMG Fluostar microplate reader (Suc=succinyl; amc=7-amino-4-methylcoumarin; Z=benzyloxycarbonyl; NA=2-naphtylamine; Boc=tert-butoxycarbonyl). The buffers were: 20 mM Tris, 1 mM DTT, 10% glycerol, 3% (v/v) DMSO (ChT-L and PA activities); 20 mM Tris, 1 mM DTT, 10% glycerol, 3% (v/v) DMSO. Studied compounds were dissolved in DMSO prior dissolution in the buffer. Proteasome was incubated for 15 min at 30° C. in the presence of the studied compound (0.1-100 μM). A control assay in the absence of tested compounds contained DMSO at the same concentration (3%, v/v). The fluorogenic proteasome substrate was then added and the hydrolysis of the appropriate fluorescent substrate was monitored for 1 h (λexc=360, λem=465 nm for amc substrates and λexc=340, λem=405 nm for the βNA substrate). Initial rates determined in control experiments were considered to be 100% of the peptidasic activity; initial rates that were above 100% in the presence of a test compound were considered to be activations, while initial rates below 100% were considered to be inhibitions. For weak inhibitors, the percentage of inhibition at a reference concentration (100 μM) is reported. The results, expressed in % inhibition (or activation factor), were obtained by calculating the average of at least two independent experiments, the variability was less than 10%. The inhibitory activity of more efficient compounds are expressed as IC50 calculated by fitting the experimental data to the equation 1: % Inhibition=100 [I]0/(IC50+[I]0)=100 (v0−vi/v0), or equation 2: % Inhibition=100 [I]0^nH/(IC50^nH+[I]0^nH), nH is the Hill number. v0 and vi are the initial rates in the absence and in the presence of inhibitor. A Dixon plot has been used to determine the inhibition constant Ki for competitive inhibition by compound A215. The reversible character of inhibition or activation was determined by measuring the activity of treated enzyme after the inhibitor molecule has been withdrawn from the reaction medium.
(§3) Inhibition of Rabbit 20 S Proteasome (pH=7.5, 30° C.)
(§4) Activation of Rabbit 20 S Proteasome (pH=7.5, 30° C., [Compound]=100 μM)

[2] = target: T2, rabbit 20S proteasome, post-acid (PA) activity (Oryctolagus cuniculus, UniProt A0A5F9DQW2); assay: Rabbit 20S proteasome fluorescent assay, post-acid activity (Z-LLE-βNA); details: pH 7.5, 30° C.; for PA % inhibition (at 100 μM): 100 μM compound
T2 construct: other: 100 μM compound, pH 7.5, 30° C; other: pH 7.5, 30° C
Experimental: as §1, §2, §3, §4

[3] = system: rabbit 20S proteasome, trypsin-like (T-L) activity; assay: Rabbit 20S proteasome fluorescent assay, trypsin-like activity (Boc-LLR-amc); details: [Compound]=100 μM, pH 7.5, 30° C.
Experimental: as §1, §2, §3, §4

T2 sequence (A0A5F9DQW2 1-212): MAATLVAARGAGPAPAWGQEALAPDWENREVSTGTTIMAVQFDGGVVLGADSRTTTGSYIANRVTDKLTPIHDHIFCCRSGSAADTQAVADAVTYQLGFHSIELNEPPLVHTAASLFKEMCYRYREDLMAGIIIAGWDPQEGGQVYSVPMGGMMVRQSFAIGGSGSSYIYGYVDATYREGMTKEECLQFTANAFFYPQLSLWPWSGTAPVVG

IC50 [1]: 40 µM
IC50 [2]: 35 µM
SMILES: COC(=O)[C@H](Cc1c[nH]c2ccccc12)NC(=O)[C@H](C)NC(=O)[C@H](Cc1ccc(O)cc1)NC(=O)OC(C)(C)C [NR40, N-Boc-Tyr-Ala-Trp-OCH3] (Boc-Tyr-Ala-Trp-OMe)
T-L Activation factor [3]: 6

IC50 [1]: 13.5 µM
PA % inhibition (at 100 μM) [2]: 81%
SMILES: COC(=O)[C@H](CC1C(=O)Nc2ccccc21)NC(=O)CNC(=O)[C@H](Cc1ccc(OCc2ccccc2)cc1)NC(=O)OC(C)(C)C (some centres unmarked) [NR38, Boc-Tyr(Bn)-Gly-Trp[O]—OCH3]
T-L Activation factor [3]: 9.8

inhibition at 100 µM [1]: 34%
PA % inhibition (at 100 μM) [2]: 39%
SMILES: COC(=O)[C@H](Cc1c[nH]c2ccccc12)NC(=O)[C@H](C)NC(=O)[C@H](Cc1ccc(OCc2ccccc2)cc1)NC(=O)OC(C)(C)C [NR36, N-Boc-Tyr(Bn)-Ala-Trp-OCH3] (Boc-Tyr(Bn)-Ala-Trp-OMe)
T-L Activation factor [3]: 9.8

inhibition at 100 µM [1]: 12%
SMILES: CC(C)(C)OC(=O)N[C@@H](Cc1ccc(OCc2ccccc2)cc1)C(=O)N[C@@H](CCCN(C(=N)NC(=O)OCc1ccccc1)C(=O)OCc1ccccc1)C(=O)N[C@@H](CC1C(=O)Nc2ccccc21)C(=O)NCc1ccccc1 (some centres unmarked) [NR16, Boc-Tyr(Bn)-Arg(Z)-2-Trp[O]—NHCH2Ph]
T-L Activation factor [3]: 8.2

IC50 [1]: 2.2 µM
PA % inhibition (at 100 μM) [2]: 87%
SMILES: CC(C)(C)OC(=O)N[C@@H](Cc1ccc(OCc2ccccc2)cc1)C(=O)NCC(=O)N[C@@H](CC1C(=O)Nc2ccccc21)C(=O)NCc1ccccc1 (some centres unmarked) [NR15, Boc-Tyr(Bn)-Gly-Trp[O]—NHCH2Ph]
T-L Activation factor [3]: 12.3

inhibition at 100 µM [1]: 62%
PA % inhibition (at 100 μM) [2]: 45%
SMILES: COC(=O)[C@H](Cc1c[nH]c2c(Br)cccc12)NC(=O)[C@H](CC(N)=O)NC(=O)[C@H](Cc1ccc(OCc2ccccc2)c(I)c1)NC(=O)OC(C)(C)C [SP274, N-Boc-3-iodo-Tyr(Bn)-Asn-7-bromo-Trp-OMe]

More lines, now with the values behind:

SMILES: CCOC(=O)[C@H](Cc1c[nH]c2c(Br)cccc12)NC(=O)[C@H](CC(C)C)NC(=O)[C@H](Cc1ccc(OC)c(I)c1)NC(=O)OC(C)(C)C [A340, N-Boc-3-iodo-Tyr(Me)-Leu-7-bromo-Trp-OEt]
PA % inhibition (at 100 μM) [2]: 17%

SMILES: CC(C)C[C@H](NC(=O)[C@H](Cc1ccc(OCc2ccccc2)cc1)NC(=O)OC(C)(C)C)C(=O)N[C@@H](CC1C(=O)Nc2ccccc21)C(=O)Nc1ccccc1 (some centres unmarked) [JV602, Boc-Tyr(Bn)-Leu-Trp[O]—NHPh]
inhibition at 100 µM [1]: 22%
PA % inhibition (at 100 μM) [2]: 26%
T-L Activation factor [3]: 1.3

SMILES: CC(C)(C)OC(=O)N[C@@H](Cc1ccc(OCc2ccccc2)cc1)C(=O)N[C@@H](CCCN(C(=N)NC(=O)OCc1ccccc1)C(=O)OCc1ccccc1)C(=O)N[C@@H](CC1C(=O)Nc2ccccc21)C(=O)Nc1ccccc1 (some centres unmarked) [CV11, Boc-Tyr(Bn)-Arg(Z)-2-Trp[O]—NHPh]
T-L Activation factor [3]: 1.7

SMILES: CC(C)(C)OC(=O)N[C@@H](Cc1ccc(OCc2ccccc2)cc1)C(=O)N[C@@H](CC(N)=O)C(=O)N[C@@H](Cc1c[nH]c2ccccc12)C(=O)Nc1ccc(O)cc1 [SP318C, N-Boc-Tyr(Bn)-Asn-Trp-NH(4-OH)Ph]
inhibition at 100 µM [1]: 15%
PA % inhibition (at 100 μM) [2]: 66%
T-L Activation factor [3]: 1.2

SMILES: CC(C)(C)OC(=O)N[C@@H](Cc1ccc(OCc2ccccc2)cc1)C(=O)NCC(=O)N[C@@H](Cc1c[nH]c2ccccc12)C(=O)O [NR35, N-Boc-Tyr(Bn)-Gly-Trp-OH] (Boc-Tyr(Bn)-Gly-Trp-OH)
T-L Activation factor [3]: 1.8

SMILES: COC(=O)[C@H](Cc1c[nH]c2c(Br)cccc12)NC(=O)[C@H](C)NC(=O)[C@H](Cc1ccc(OC)c(I)c1)NC(=O)OC(C)(C)C [A385, N-Boc-3-iodo-Tyr(Me)-Ala-7-bromo-Trp-OMe]
inhibition at 100 µM [1]: 28%
PA % inhibition (at 100 μM) [2]: 38%

SMILES: CC(C)(C)OC(=O)N[C@@H](Cc1ccc(OCc2ccccc2)cc1)C(=O)N[C@@H](CC(N)=O)C(=O)N[C@@H](Cc1c[nH]c2ccccc12)C(=O)NCc1ccccc1 [A416, N-Boc-Tyr(Bn)-Asn-Trp-NHCH2Ph] (Boc-Tyr(Bn)-Asn-Trp-NHBn)
inhibition at 100 µM [1]: 28%
PA % inhibition (at 100 μM) [2]: 35%
T-L Activation factor [3]: 2.2

SMILES: C[C@H](NC(=O)[C@H](Cc1ccc(OCc2ccccc2)cc1)NC(=O)OC(C)(C)C)C(=O)N[C@@H](Cc1c[nH]c2ccccc12)C(=O)NCc1ccccc1 [SP304R, N-Boc-Tyr(Bn)-Ala-Trp-NHCCH2Ph] (Boc-Tyr(Bn)-Ala-Trp-NHBn)
PA % inhibition (at 100 μM) [2]: 45%
T-L Activation factor [3]: 1.7

SMILES: CCOC(=O)[C@H](Cc1c[nH]c2c(-c3cc(C[C@H](NC(=O)OC(C)(C)C)C(=O)N[C@@H](CC(C)C)C(=O)OC)ccc3OCc3ccccc3)cccc12)NC(=O)OCc1ccccc1 [SP221]
T-L Activation factor [3]: 1.4

SMILES: C[C@H](NC(=O)[C@H](Cc1ccc(OCc2ccccc2)cc1)NC(=O)OC(C)(C)C)C(=O)N[C@@H](Cc1c[nH]c2ccccc12)C(=O)Nc1ccc(O)cc1 [SP313P, N-Boc-Tyr(Bn)-Ala-Trp-NH(4-OH)Ph]
inhibition at 100 µM [1]: 26%
IC50 [2]: 4 µM

SMILES: CC(C)(C)OC(=O)NCCC[C@H](NC(=O)[C@H](Cc1ccc(OCc2ccccc2)cc1)NC(=O)OC(C)(C)C)C(=O)N[C@@H](CC1C(=O)Nc2ccccc21)C(=O)Nc1ccccc1 (some centres unmarked) [CV12, Boc-Tyr(Bn)-Lys(Boc)-Trp[O]—NHPh]
IC50 [2]: 10.4 µM
T-L Activation factor [3]: 1.5

SMILES: CNC(=O)[C@H](Cc1c[nH]c2c(Br)cccc12)NC(=O)[C@H](C)NC(=O)[C@H](Cc1ccc(OCc2ccccc2)c(I)c1)NC(=O)OC(C)(C)C [A254, N-Boc-3-iodo-Tyr(Bn)-Ala-7-bromo-Trp-NHMe]
inhibition at 100 µM [1]: 38%
PA % inhibition (at 100 μM) [2]: 60%

SMILES: COC(=O)[C@H](Cc1c[nH]c2c(Br)cccc12)NC(=O)[C@H](CC(C)C)NC(=O)[C@H](Cc1ccc(OCc2ccccc2)c(I)c1)NC(=O)OC(C)(C)C [A268, N-Boc-3-iodo-Tyr(Bn)-Leu-7-bromo-Trp-OMe]
T-L Activation factor [3]: 2

SMILES: COC(=O)[C@H](Cc1c[nH]c2c(Br)cccc12)NC(=O)[C@H](CC(C)C)NC(=O)[C@H](Cc1ccc(OC)c(I)c1)NC(=O)OC(C)(C)C [A363, N-Boc-3-iodo-Tyr(Me)-Leu-7-bromo-Trp-OMe]
PA % inhibition (at 100 μM) [2]: 20%
T-L Activation factor [3]: 1.9

SMILES: CC(C)C[C@H](NC(=O)[C@H](Cc1ccc(OCc2ccccc2)cc1)NC(=O)OC(C)(C)C)C(=O)N[C@@H](Cc1c[nH]c2ccccc12)C(=O)NCCCCNC(=O)OC(C)(C)C [SP296P, N-Boc-Tyr(Bn)-Leu-Trp-NH(CH2)4NHBoc]
inhibition at 100 µM [1]: 22%
PA % inhibition (at 100 μM) [2]: 59%
T-L Activation factor [3]: 2.3

SMILES: CC(C)C[C@H](NC(=O)[C@H](Cc1ccc(OCc2ccccc2)cc1)NC(=O)OC(C)(C)C)C(=O)N[C@@H](Cc1c[nH]c2ccccc12)C(=O)Nc1ccc(O)cc1 [A418P, N-Boc-Tyr(Bn)-Leu-Trp-NH(4-OH)Ph]
PA % inhibition (at 100 μM) [2]: 32%
T-L Activation factor [3]: 1.6

SMILES: COC(=O)[C@H](Cc1c[nH]c2c(Br)cccc12)NC(=O)[C@H](C)NC(=O)[C@H](Cc1ccc(OCc2ccccc2)c(I)c1)NC(=O)OC(C)(C)C [A248, N-Boc-3-iodo-Tyr(Bn)-Ala-7-bromo-Trp-OMe]
PA % inhibition (at 100 μM) [2]: 32%

SMILES: C[C@H](NC(=O)[C@H](Cc1ccc(OCc2ccccc2)cc1)NC(=O)OC(C)(C)C)C(=O)N[C@@H](CC1C(=O)Nc2ccccc21)C(=O)Nc1ccccc1 (some centres unmarked) [CV13, Boc-Tyr(Bn)-Ala-Trp[O]—NHPh]
inhibition at 100 µM [1]: 32%
IC50 [2]: 3.9 µM

SMILES: COC(=O)[C@H](Cc1c[nH]c2c(Br)cccc12)NC(=O)CCNC(=O)C(Cc1ccc(OC)c(I)c1)NC(=O)OC(C)(C)C (some centres unmarked) [A493, N-Boc-3-iodo-Tyr(Me)-βAla-7-bromo-Trp-OMe]
inhibition at 100 µM [1]: 29%
PA % inhibition (at 100 μM) [2]: 40%
T-L Activation factor [3]: 8.2
